Data reported in ChEMBL document CHEMBL1201862, “PubChem BioAssay data set” (2004).
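Cultured in 96-well plates, cells were exposed to test compound for 48 hours across five concentrations. The concentration for 50% growth inhibition is given as GI50.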 Active and inactive are the calls of the source. No stated cut-off is given here; in the data, active = GI50 up to about 1.1 µM and inactive = higher.

How the values were obtained:
Assay in all cases: inhibition of tumour cell growth, NCI panel, 48 h
SK-OV-3 = test system: SK-OV-3
UO-31 = test system: UO-31
EKVX = test system: EKVX
LOX IMVI = test system: LOX IMVI
MOLT-4 = test system: MOLT-4
TK-10 = test system: TK-10
SF-539 = test system: SF-539
KM12 = test system: KM12
SNB-75 = test system: SNB-75
COLO 205 = test system: COLO 205
HCT-15 = test system: HCT-15
K562 = test system: K562
HCT-116 = test system: HCT-116
NCI-H460 = test system: NCI-H460
786-0 = test system: 786-0
NCI-H226 = test system: NCI-H226
SF-295 = test system: SF-295
M14 = test system: M14
SR = test system: SR
SK-MEL-28 = test system: SK-MEL-28
NCI-H23 = test system: NCI-H23
OVCAR-8 = test system: OVCAR-8
HL-60 = test system: HL-60
RXF 393 = test system: RXF 393
OVCAR-5 = test system: OVCAR-5
IGROV-1 = test system: IGROV-1
HT-29 = test system: HT-29
A549 = test system: A549
NCI-H522 = test system: NCI-H522
SF-268 = test system: SF-268
SK-MEL-5 = test system: SK-MEL-5
OVCAR-3 = test system: OVCAR-3
Malme-3M = test system: Malme-3M
OVCAR-4 = test system: OVCAR-4
UACC-257 = test system: UACC-257
PC-3 = test system: PC-3
MCF7 = test system: MCF7
U-251 = test system: U-251
RPMI-8226 = test system: RPMI-8226
T47D = test system: T47D
CCRF-CEM = test system: CCRF-CEM
CAKI-1 = test system: CAKI-1
DU-145 = test system: DU-145
MDA-MB-231 = test system: MDA-MB-231
SK-MEL-2 = test system: SK-MEL-2
SNB-19 = test system: SNB-19
HCC 2998 = test system: HCC 2998
HOP-62 = test system: HOP-62
HOP-92 = test system: HOP-92
A498 = test system: A498
NCI/ADR-RES = test system: NCI/ADR-RES
SW-620 = test system: SW-620
MDA-MB-435 = test system: MDA-MB-435
SN12C = test system: SN12C
Hs-578T = test system: Hs-578T
ACHN = test system: ACHN
MDA-N = test system: MDA-N
UACC-62 = test system: UACC-62

CC1=CC[C@@]2(C)CC[C@](O)(C(C)C)C2C(OC(=O)c2ccccc2)C1 (stereo not given in full)
GI50 (SK-OV-3): 14.3 µM (inactive) | GI50 (UO-31): 17.3 µM (inactive) | GI50 (EKVX): 15.5 µM (inactive) | GI50 (LOX IMVI): 19.4 µM (inactive) | GI50 (MOLT-4): 17.1 µM (inactive) | GI50 (TK-10): 18.3 µM (inactive) | GI50 (SF-539): 19.8 µM (inactive) | GI50 (KM12): 18.4 µM (inactive) | GI50 (SNB-75): 17.5 µM (inactive) | GI50 (COLO 205): 22.1 µM (inactive) | GI50 (HCT-15): 18.7 µM | GI50 (K562): 19.5 µM (inactive) | GI50 (HCT-116): 17.3 µM (inactive) | GI50 (NCI-H460): 21.6 µM (inactive) | GI50 (786-0): 18.5 µM (inactive) | GI50 (NCI-H226): 23.8 µM (inactive) | GI50 (SF-295): 15.6 µM (inactive) | GI50 (M14): 18.7 µM (inactive) | GI50 (SR): 31.7 µM (inactive) | GI50 (SK-MEL-28): 24 µM (inactive) | GI50 (NCI-H23): 18.5 µM (inactive) | GI50 (OVCAR-8): 19.4 µM (inactive) | GI50 (HL-60): 28.9 µM (inactive) | GI50 (RXF 393): 12.7 µM (inactive) | GI50 (OVCAR-5): 16 µM (inactive) | GI50 (IGROV-1): 15.6 µM (inactive) | GI50 (HT-29): 16.7 µM (inactive) | GI50 (A549): 15.6 µM (inactive) | GI50 (NCI-H522): 16.5 µM (inactive) | GI50 (SF-268): 23.2 µM (inactive) | GI50 (SK-MEL-5): 18.3 µM (inactive) | GI50 (OVCAR-3): 17.5 µM (inactive) | GI50 (Malme-3M): 21 µM (inactive) | GI50 (OVCAR-4): 25 µM (inactive) | GI50 (UACC-257): 18.9 µM (inactive) | GI50 (PC-3): 18.7 µM (inactive) | GI50 (MCF7): 17.9 µM (inactive) | GI50 (U-251): 27.8 µM (inactive) | GI50 (RPMI-8226): 16 µM (inactive) | GI50 (T47D): 20.1 µM (inactive) | GI50 (CCRF-CEM): 23 µM (inactive) | GI50 (CAKI-1): 21.1 µM (inactive) | GI50 (DU-145): 18.1 µM (inactive) | GI50 (MDA-MB-231): 17.9 µM (inactive) | GI50 (SK-MEL-2): 14.4 µM (inactive) | GI50 (SNB-19): 20.7 µM (inactive) | GI50 (HCC 2998): 11.8 µM (inactive) | GI50 (HOP-62): 18 µM (inactive) | GI50 (HOP-92): 15.1 µM (inactive) | GI50 (A498): 24.4 µM (inactive) | GI50 (NCI/ADR-RES): 19.7 µM (inactive) | GI50 (SW-620): 22.3 µM (inactive) | GI50 (MDA-MB-435): 36.1 µM (inactive) | GI50 (SN12C): 23.6 µM (inactive) | GI50 (Hs-578T): 21.2 µM (inactive) | GI50 (ACHN): 17.8 µM (inactive)

O=C1c2c(O)cccc2Cc2cccc(O)c21 [ANTHRALIN]
GI50 (SK-OV-3): 0.351 µM (active) | GI50 (UO-31): 0.3 µM (active) | GI50 (EKVX): 0.2 µM (active) | GI50 (MDA-N): 0.321 µM (active) | GI50 (TK-10): 0.684 µM (active) | GI50 (SF-539): 0.273 µM (active) | GI50 (KM12): 0.355 µM (active) | GI50 (NCI-H460): 0.334 µM (active) | GI50 (786-0): 0.386 µM (active) | GI50 (NCI-H226): 0.314 µM (active) | GI50 (SF-295): 0.269 µM (active) | GI50 (M14): 0.256 µM (active) | GI50 (SR): 0.31 µM (active) | GI50 (SK-MEL-28): 0.783 µM (active) | GI50 (NCI-H23): 0.327 µM (active) | GI50 (OVCAR-8): 0.321 µM (active) | GI50 (HL-60): 0.259 µM (active) | GI50 (RXF 393): 0.32 µM (active) | GI50 (OVCAR-5): 0.57 µM (active) | GI50 (IGROV-1): 0.375 µM (active) | GI50 (HT-29): 0.322 µM (active) | GI50 (A549): 0.334 µM (active) | GI50 (SF-268): 0.376 µM (active) | GI50 (SK-MEL-5): 0.178 µM (active) | GI50 (OVCAR-3): 0.382 µM (active) | GI50 (OVCAR-4): 0.447 µM (active) | GI50 (UACC-257): 0.216 µM (active) | GI50 (MCF7): 0.255 µM (active) | GI50 (U-251): 0.313 µM (active) | GI50 (RPMI-8226): 0.321 µM (active) | GI50 (UACC-62): 0.415 µM (active) | GI50 (CAKI-1): 0.337 µM (active) | GI50 (DU-145): 0.264 µM (active) | GI50 (SNB-19): 0.435 µM (active) | GI50 (HOP-62): 0.347 µM (active) | GI50 (A498): 1.22 µM (inactive) | GI50 (MDA-MB-435): 0.348 µM (active) | GI50 (Hs-578T): 0.29 µM (active) | GI50 (ACHN): 0.319 µM (active)
